Experiments:
IFNγ-primed U937 cells = experiment: Superoxide anion production assay (zymosan-induced ROS); type: cell-based; details: Homo sapiens, U-937; read-out: REC50, Zymosan-induced ROS production in IFNγ-primed U937 cells
Experimental: As a means of assessing PI3Kδ dependent cell function, superoxide anion production in IFNγ-primed U937 cells was evaluated by a chemiluminescence assay. The U937 cells (purchased from ATCC, Manassas, Va.) were maintained in RPMI 1640 (Invitrogen Ltd., Paisley, UK) with 10% FCS at 37° C. The cells were suspended at a density of 10^7cells/mL in 40 mL 10% FCS RPMI 1640, and treated with 20 μL of 100 μg/mL IFNγ solution (final concentration: 50 ng/mL), and incubated at 37° C., 5% CO2 for 4 days.
IFNγ-primed U937 cells were seeded at 0.2×10^6 cells/well in a 96-well plate, and pre-incubated with test compounds for 2 hr in starvation media (0.5% FCS RPMI1640-phenol red free). Zymosan A (10 mg) from Saccharomyses cerevisiae (ex Sigma-Aldlich) was resuspended in 1 mL of 150 mM NaCl and boiled at 100° C. for 15 min. After boiling, Zymosan particles were washed with 1 mL of PBS twice, and incubated with 0.5 mL of BioParticles™ opsonized reagents (Life technologies) for 60 min at 37° C. […] Chemiluminescence indicating released superoxide anion was measured every 15 min up to 60 min by luminometric measurement (Varioskan® Flash, Thermo-Fisher Scientific).
The data at 60 min after incubation was used for analysis. […] The relative EC50 values were calculated from the concentration-response curves generated by the serial dilutions of the test compounds using XL-Fit (idbs, Guildford, UK).

[1] = tested on: cigarette smoke-induced cell accumulation and biomarkers in murine BALF; experiment: Cigarette smoke model; type: in vivo, A/J mice
Experimental: A/J mice (males, 5 weeks old) were exposed to cigarette smoke (4% cigarette smoke, diluted with compressed air) for 30 min/day for 11 days using a Tobacco Smoke Inhalation Experiment System for small animals (Model SIS-CS; Sibata Scientific Technology, Tokyo, Japan). Test substances were administered once daily for 3 days after the final cigarette smoke exposure (intra-nasal dose comprising 35 μL of solution in 50% DMSO/isotonic saline).
At 12 hr after administration of the last dose, animals were anesthetized, the trachea was cannulated and bronchial alveolar lavage (BAL) was carried out by the instillation into and then withdawal from the lungs, of PBS (100 mL/kg). Total cell numbers in the BALF samples were measured using a haemocytometer under a phase-contrast microscope. The proportions of alveolar macrophages and neutrophils were determined by FACS analysis using anti-mouse MOMA2-FITC (macrophage) or anti-mouse 7/4 (neutrophil).
Cells were suspended in PBS and were incubated with anti-MOMA2-FITC (2 μg/mL, Catalogue no SM065F, Acris Antibodies GmbH, Herford, Germany) or anti-7/4-FITC (2 μg/mL, Catalogue no CL050F, Acris Antibodies GmbH, Herford, Germany) for 30 min at 30° C., and also counterstained with propidium iodide (2 μg/mL) to allow exclusion of necrotic cells. The cells were washed with PBS, and transferred to FACS tubes. Samples was set in a flow cytometer (ALTRA II; Beckman Coulter Japan, Tokyo, Japan), and a single-parameter FL2 [PMT2] (FITC) histogram with log x-axis was plotted to illustrate relative intensity of FITC.
Data files are stored for subsequent analysis using Kaluza analysis software (ver. 1.2) to calculate the proportion of each cell type. The levels of CXCL1(KC), MCP1, TNFα, IL-17 or osteopontin in BALF were determined using Quentikine® mouse KC, MCP1, TNFα, IL-17 or osteopontin ELISA kit (R&D systems, Inc., Minneapolis, Minn., USA). The presence of malondialdehyde was measured using OxiSelect® TBARS Assay Kit (MDA Quantitation; Cell Biolabs Inc, San Diego, Calif., USA).

d-U937 cells = experiment: MTT assay, cell viability; type: cell-based, human; details: 10 μg/mL
Experimental: PMA-differentiated U937 cells were pre-incubated with test compound (10 μg/mL) or vehicle for 4 hr in 5% FCS or 10% FCS for 24 hr. The supernatant was replaced with new media (200 μL) and MTT stock solution (10 μL, 5 mg/mL) was added to each well. After 1 hr incubation, the media were removed, 200 μL of DMSO was added to each well and the plates were shaken lightly for 1 hr prior to reading the absorbance at 550 nm. The percentage loss of cell viability was calculated for each well relative to vehicle (0.5% DMSO)-treatment.

[2] = CS + Compound (I) 0.02 mg/mL intra-nasal
[3] = CS + Compound (I) 0.2 mg/mL intra-nasal
[4] = CS + Compound (I) 2 mg/mL intra-nasal

COCCOCCOCC#Cc1cccc2nc(Cn3nc(-c4cc(O)cc(F)c4)c4c(N)ncnc43)n(Cc3ccccc3C(F)(F)F)c(=O)c12 [Compound (I), 2-((4-Amino-3-(3-fluoro-5-hydroxyphenyl)-1H-pyrazolo[3,4-d]pyrimidin-1-yl)methyl)-5-(3-(2-(2-methoxyethoxy)ethoxy)prop-1-yn-1-yl)-3-(2-(trifluoromethyl)benzyl)quinazolin-4(3H)-one]
EC50 (IFNγ-primed U937 cells): 11.8 nM
Cell numbers in BAL, Macrophages, % inhibition [1, 2]: 32%
Cell numbers in BAL, Neutrophils, % inhibition [1, 2]: 0.2 (26) %
Cell numbers in BAL, Macrophages, % inhibition [1, 3]: 0.2 (63) %
Cell numbers in BAL, Neutrophils, % inhibition [1, 3]: 54%
Cell numbers in BAL, Macrophages, % inhibition [1, 4]: 0.3 (79) %
Cell numbers in BAL, Neutrophils, % inhibition [1, 4]: 0.1 (68) %
potency versus compound A, cigarette-smoke induced cell accumulation in murine BALF ([1]; contemporaneous study, FIG. 2): more potent inhibitor of cigarette-smoke induced cell accumulation in murine BALF than is compound A
Cell Viability MTT Assay in d-U937 cells at 4 hr (d-U937 cells; 4 hr): −ve (−ve indicates a value of <30% inhibition at 10 μg/mL)
Cell Viability MTT Assay in d-U937 cells at 24 hr (d-U937 cells; 24 hr): −ve (−ve indicates a value of <30% inhibition at 10 μg/mL)

From US20170334919A1, “2-((4-AMINO-3-(3-FLUORO-5-HYDROXYPHENYL)-1H-PYRAZOLO[3,4-D]PYRIMIDIN-1 -YL)METHYL)-3-(2-(TRIFLUORO-MET HYL)BENZYL)QUINAZOLIN-4(3H)-ONE DERIVATIVES AND THEIR USE AS PHOSPHOINOSITIDE 3-KINASE INHIBITORS” (RESPIVERT LTD., priority 2013, published 2017)
